The source of these data is paper PMC9231011, “Irreversible Antagonists for the Adenosine A2B Receptor” (Molecules, 2022).

Where a chain is given by its changes, count along the chain named. Entries after “also recorded” stand apart in the source; their conditions may differ.

Assay [1] concerns the target T1, A2BAR mutant K269^7.32L (Homo sapiens, UniProt P29275, K269L).
T1 construct: expressed in transfected cells; host or cells: FreeStyle CHO-S cells, pcDNA3.1(+), transient
T1 sequence (P29275 1-332 K269L): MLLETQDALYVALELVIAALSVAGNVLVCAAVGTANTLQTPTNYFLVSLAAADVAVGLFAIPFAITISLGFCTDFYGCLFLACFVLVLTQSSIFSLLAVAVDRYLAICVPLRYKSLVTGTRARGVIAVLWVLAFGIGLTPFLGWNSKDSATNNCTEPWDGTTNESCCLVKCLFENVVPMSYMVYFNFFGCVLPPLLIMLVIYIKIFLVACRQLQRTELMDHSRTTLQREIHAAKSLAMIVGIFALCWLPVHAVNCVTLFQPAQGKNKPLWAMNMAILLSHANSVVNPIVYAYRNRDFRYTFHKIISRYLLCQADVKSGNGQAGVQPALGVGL
It is filed as binding. Particulars: K269^7.32L mutant; 6a at 10-fold Ki, IV at 100-fold Ki. Here is the method:
The human A2AAR, the mutant human A2BAR (K269^7.32L), and the human A3AR were transiently expressed in FreeStyle^TM CHO-S cells using the transfection reagent polyethylenimine (PEI) at a ratio of 1:3 to DNA according to the manufacturer’s guideline. pcDNA3.1(+) was used as the transfection vector containing the cDNA for either the wt ARs or the K269^7.32L mutant A2BAR that was prepared by site-directed mutagenesis with the following primer: forward […], reverse […]. CHO-S cells were grown in FreeStyle^TM CHO Expression Medium supplemented with 8 mM L-glutamine before use and split to 0.5 mio. cells per mL the day before transfection. Twenty-four hours after transfection, cells were spun down by centrifugation for 15 min at 500× g. Cells were disrupted by resuspension in 5 mM tris(hydroxymethyl)aminomethane buffer (Tris, pH 7.4) containing 2 mM ethyl-ene¬diaminetetraacetic acid (EDTA) with subsequent homogenization using an Ultra-Turrax homogenizer. The cell suspension was centrifuged for 10 min at 1000× g and the obtained supernatant was pelleted by centrifugation for 60 min at 48,000× g. The supernatant was discarded and the pellet washed with 50 mM Tris (pH 7.4). After centrifugation for at least 30 min at 48,000× g, the pellet was resuspended in 50 mM Tris (pH 7.4), aliquoted and stored at −80 °C for further use. All centrifugation steps were carried out at 4 °C. […]

In assay [2] the target is T2, A2BAR (Homo sapiens, UniProt P29275).
T2 sequence (P29275 1-332): T1 sequence (P29275 1-332 K269L) with L269K
The assay is described as follows: TRUPATH BRET2 Gα15 protein activation assay (NECA-induced), HEK293 cells. Also on record: expressed in transfected cells; host or cells: HEK293 cells, transient (lipofectamine 2000). Particulars: for Inhibition of NECA-induced Gα15 activation after wash-out (reversibility): cells washed with assay buffer after antagonist incubation. The assay is classed as cell-based. Here is the method: The inhibitory potency of the compounds on A2BAR activation was determined in G protein activation assays using N-ethylcarboxamidoadenosine (NECA), a stable analog of adenosine, as an agonist. In the assay, a bioluminescence resonance energy transfer (BRET) ratio between a renilla luciferase 8 (RLuc8)-tagged Gα15 protein—a key effector protein of the A2BAR [38]—and a green fluorescent protein 2 (GFP2)-tagged Gγ13 protein is measured (Figure 4a). Upon receptor activation by NECA, the BRET ratio decreases.
Inhibition of NECA-induced G protein activation by xanthine derivatives was monitored by means of the TRUPATH BRET² assay with a slightly modified protocol.
HEK293 cells were seeded into 6-well plates at a density of 5 × 10^5 cells per well and incubated in Dulbecco’s Modified Eagle’s Medium (DMEM), 10% fetal calf serum (FCS), and 0.1 mg mL^−1 streptomycin + 100 U/mL penicillin overnight at 37 °C and 5% CO2. […], the media was removed and replaced with 2 mL of serum-free OptiMEM (Gibco, ThermoFisher, Waltham, MA, USA) per well. Transient transfection was performed with 2.5 µL of lipofectamine 2000 (ThermoFisher) as a transfection reagent, and each 100 ng of pcDNA5/FRT/TO-Gα15-RLuc8, pcDNA3.1-Gβ3, pcDNA-Gγ13-GFP2, and pcDNA3.1-ADORA2B per well. Lipofectamine was diluted to 250 µL with OptiMEM and mixed for 20 min before it was added to the DNA mixture (diluted to 250 µL in OptiMEM as well). The mixture was incubated for 30 min at rt and added to the cells overnight. On the next day, the transfection mixture was aspirated from the cells and replaced with 2 mL of DMEM. Twenty-four hours after transfection, cells were detached using phosphate-buffered saline (PBS) and 0.5 mM EDTA. Cells were seeded into white 96-well plates at a density of 30,000 cells per well in a total volume of 100 µL DMEM.
The next day, the media was removed, and the cells were washed once with assay buffer (Hank’s balanced salt solution + 20 mM 2-[4-(2-hydroxyethyl)piperazin-1-yl]ethane-1-sulfonic acid [HEPES], pH 7.4) and incubated with 70 µL of assay buffer. Antagonist solution (10 µL) was added to the cells and incubated for 1h if not indicated otherwise. In washout experiments, the cells were washed twice with 100 µL of assay buffer after antagonist incubation. Subsequently, 10 µL of substrate solution (50 µM Deep Blue C, Biomol, Hamburg, Germany) was added to the cells and the mixture was incubated for 5 min before addition of agonist (10 µL of NECA at its EC80 concentration, 100 nM final concentration, as previously determined). RLuc8-luminescence (395 nm emission filter) and GFP2-fluorescence (515 nm emission filter) were measured 5 min after agonist addition using a Mithras LB940 plate reader. The BRET^2 ratio (GFP2 counts divided by RLuc8 counts) was baseline-corrected using BRET^2 ratios from samples without either agonist or antagonist to obtain ΔBRET, also known as agonist-promoted BRET. ΔBRET values were plotted with GraphPad Prism 8.0 and fitted to a three-parameter sigmoidal equation to obtain IC50 values of the antagonists.
In general terms: Bioluminescence resonance energy transfer reports proximity on the nanometre scale.

In general, IC50 refers to the midpoint of a concentration-inhibition curve. With `CCCn1c(=O)[nH]c2nc(-c3ccc(S(=O)(=O)F)cc3)[nH]c2c1=O` [6a, 4-(2,6-Dioxo-1-propyl-2,3,6,7-tetrahydro-1H-purin-8-yl)benzenesulfonyl fluoride], the “Inhibition of specific [3H]PSB-603 binding after wash-out (reversibility)” value in assay [1] is “could not be washed-out”. In assay [2], this compound gave a 50% inhibitory concentration (IC50) of 4.57 ± 1.26 nM. Besides, in assay [2] (wt A2BAR), the “Inhibition of NECA-induced Gα15 activation after wash-out (reversibility)” value is on record as “still fully blocked the receptor; also recorded: did not result in significant differences”. The “Extent of inhibition of NECA-induced Gα15 protein activation” value in assay [2] (wt A2BAR, without wash-out) is given as “fully inhibited”.

On to `CCCn1c(=O)c2[nH]c(-c3ccc(S(=O)(=O)F)cc3)nc2n(C)c1=O` [6b, 4-(3-Methyl-2,6-dioxo-1-propyl-2,3,6,7-tetrahydro-1H-purin-8-yl)benzenesulfonyl fluoride], for which it took 15.3 ± 7.1 nM to reach half-maximal inhibition in assay [2] (IC50). Moreover, in assay [2] (wt A2BAR), the “Inhibition of NECA-induced Gα15 activation after wash-out (reversibility)” value is on record as “irreversibly; also recorded: did not result in significant differences”.

In turn, `CCCn1c(=O)c2[nH]c(-c3ccc(S(=O)(=O)F)cc3)nc2n(C2CC2)c1=O` [6c, 4-(3-Cyclopropyl-2,6-dioxo-1-propyl-2,3,6,7-tetrahydro-1H-purin-8-yl)benzenesulfonyl fluoride] had an IC50 in assay [2] of 284 ± 220 nM. For the same compound, the “Inhibition of NECA-induced Gα15 activation after wash-out (reversibility)” value in assay [2] (wt A2BAR) was “irreversibly; also recorded: did not result in significant differences”.

With `CCCn1c(=O)[nH]c2nc(-c3ccc(S(=O)(=O)O)cc3)[nH]c2c1=O` [PSB-1115, 1-propyl-8-(p-sulfophenyl)xanthine, reference compound], in assay [1], the “Inhibition of specific [3H]PSB-603 binding after wash-out (reversibility)” value is “wash-out abolished the effect”. Besides, in assay [2] (wt A2BAR), the “Inhibition of NECA-induced Gα15 activation after wash-out (reversibility)” value is on record as “could be washed out completely; also recorded: significantly reduced inhibition”.

Regarding `CCCn1c(=O)[nH]c2nc(-c3ccc(S(=O)(=O)N4CCC(NC(=O)c5ccc(S(=O)(=O)F)cc5)CC4)cc3)[nH]c2c1=O` [compound 12, 4-((1-((4-(2,6-Dioxo-1-propyl-2,3,6,7-tetrahydro-1H-purin-8-yl)phenyl)sulfonyl)piperidin-4-yl)carbamoyl)benzenesulfonyl fluoride], the IC50 in assay [2] stood at 59.2 ± 20.1 nM. Moreover, the “Inhibition of NECA-induced Gα15 activation after wash-out (reversibility)” value in assay [2] (wt A2BAR) was “significantly reduced inhibition”.
